Laboratory results from ChEMBL document CHEMBL1201862, “PubChem BioAssay data set” (2004).
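Values below derive from 48-hour exposures of cells grown in 96-well plates, with endpoints linearly interpolated between the two concentrations bracketing the appropriate inhibition level. GI50 = concentration required for 50% inhibition of growth.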 Active and inactive are the calls of the source. Rule as the data show it: active = GI50 up to about 1.1 µM and inactive = higher.

Legend:
Test in all cases: inhibition of tumour cell growth, NCI panel, 48 h
NCI-H522 = test system: NCI-H522
DMS-273 = test system: DMS-273
A498 = test system: A498
HL-60 = test system: HL-60
HOP-62 = test system: HOP-62
KM12 = test system: KM12
M14 = test system: M14
A549 = test system: A549
IGROV-1 = test system: IGROV-1
SF-268 = test system: SF-268
HCT-116 = test system: HCT-116
NCI-H23 = test system: NCI-H23
SNB-19 = test system: SNB-19
SF-295 = test system: SF-295
LOX IMVI = test system: LOX IMVI
786-0 = test system: 786-0
CCRF-CEM = test system: CCRF-CEM
Malme-3M = test system: Malme-3M
NCI-H226 = test system: NCI-H226

| Compound | GI50 (NCI-H522) | GI50 (DMS-273) | GI50 (A498) | GI50 (HL-60) | GI50 (HOP-62) | GI50 (KM12) | GI50 (M14) | GI50 (A549) | GI50 (IGROV-1) | GI50 (SF-268) | GI50 (HCT-116) | GI50 (NCI-H23) | GI50 (SNB-19) | GI50 (SF-295) | GI50 (LOX IMVI) | GI50 (786-0) | GI50 (CCRF-CEM) | GI50 (Malme-3M) | GI50 (NCI-H226) |
| --- | --- | --- | --- | --- | --- | --- | --- | --- | --- | --- | --- | --- | --- | --- | --- | --- | --- | --- | --- |
| Cc1ccc(S(=O)(=O)OCC/C(=C\[Si](C)(C)C)c2ccccc2)cc1 | > 100 µM (inactive) | > 100 µM (inactive) | > 100 µM (inactive) | 91 µM (inactive) | > 100 µM (inactive) | > 100 µM (inactive) | > 100 µM (inactive) | > 100 µM (inactive) | > 100 µM (inactive) | > 100 µM (inactive) | > 100 µM (inactive) | > 100 µM (inactive) | > 100 µM (inactive) | > 100 µM (inactive) | > 100 µM (inactive) | > 100 µM (inactive) | > 100 µM (inactive) | > 100 µM (inactive) | > 100 µM (inactive) |
| COC1CC(O)C(OC(=O)c2ccccc2)C(C)O1 (stereo unspecified) | > 100 µM (inactive) | > 100 µM (inactive) | > 100 µM (inactive) | > 100 µM (inactive) | > 100 µM (inactive) | > 100 µM (inactive) | > 100 µM (inactive) | > 100 µM (inactive) | > 100 µM (inactive) | > 100 µM (inactive) | > 100 µM (inactive) | > 100 µM (inactive) | > 100 µM (inactive) | > 100 µM (inactive) | > 100 µM (inactive) | > 100 µM (inactive) | > 100 µM (inactive) | > 100 µM (inactive) | > 100 µM (inactive) |
| CCN(CC)CCCNC(=O)c1ccc([N+](=O)[O-])cc1O | > 100 µM (inactive) | > 100 µM (inactive) | > 100 µM (inactive) | > 100 µM (inactive) | > 100 µM (inactive) | > 100 µM (inactive) | > 100 µM (inactive) | > 100 µM (inactive) | > 100 µM (inactive) | > 100 µM (inactive) | – | > 100 µM (inactive) | > 100 µM (inactive) | > 100 µM (inactive) | > 100 µM (inactive) | > 100 µM (inactive) | > 100 µM (inactive) | > 100 µM (inactive) | > 100 µM (inactive) |
| C=C1C(=O)C23CC1CCC2C12CO[C@@H]4OCC(C)(CC[C@@H]1OC3=O)C42 (stereo partly specified) | 1.01 µM (active) | 6.56 µM (inactive) | 19.4 µM (inactive) | 0.569 µM (active) | 27 µM (inactive) | 5.43 µM (inactive) | 1.31 µM (inactive) | 10.9 µM (inactive) | 6.95 µM (inactive) | 6.32 µM (inactive) | 2.08 µM (inactive) | 6.04 µM (inactive) | 8 µM (inactive) | 16.9 µM (inactive) | – | 2.24 µM (inactive) | 2.38 µM (inactive) | 2.3 µM (inactive) | 20.7 µM (inactive) |
| COc1ccccc1NC(=O)C1=C(C)NC(C)=C(C(=O)Nc2ccccc2OC)C1C1=CC=COC1 | – | 6.81 µM (inactive) | 6.17 µM (inactive) | 3.94 µM (inactive) | 27.5 µM (inactive) | 9.14 µM (inactive) | 5.2 µM (inactive) | 18.5 µM (inactive) | 10.8 µM (inactive) | 13.6 µM (inactive) | 4.53 µM (inactive) | 23.9 µM (inactive) | 19.1 µM (inactive) | 6.73 µM (inactive) | – | 11.5 µM (inactive) | 7.87 µM (inactive) | 5.68 µM (inactive) | > 100 µM (inactive) |
| COc1ncn(C2C=C(CO)C(O)C2O)c(=O)n1 (stereo unspecified) | > 100 µM (inactive) | > 100 µM (inactive) | > 100 µM (inactive) | > 100 µM (inactive) | > 100 µM (inactive) | > 100 µM (inactive) | > 100 µM (inactive) | > 100 µM (inactive) | > 100 µM (inactive) | > 100 µM (inactive) | > 100 µM (inactive) | – | < 0.01 µM (active) | – | – | > 100 µM (inactive) | – | > 100 µM (inactive) | > 100 µM (inactive) |
